SMILES strings stand for the structures. Like-named read-outs stand apart in the source and are kept apart here.

Assay [1] relates to A549 cells. Briefly: In vitro cytotoxicity (MTT) on A549. It counts as cell-based. The following applies: Homo sapiens, afatinib: 48 hour exposure, read-out: IC50 (half maximal inhibitory concentration). On the procedure:
(§1) A549, MDA-MB-231 and SKOV-3 cells were seeded (5×10^3 cells/well) in 96-well plates and incubated overnight. Free Afatinib, Afatinib loaded PLGA NPs, anti HER-2 PLGA NPs, Jurkat-T-MNPs, and CAR-T-MNPs were added to the seeded cells (n=4). Alternatively, free cisplatin, cisplatin loaded PLGA NPs, Jurkat-T-MNPs, and CAR-T-MNPs were added to the seeded cells (n=4) at a cisplatin concentration of 7 μM (A549) & 3.5 μM (SKOV-3). After incubation for 48 hours, the absorbance at 490 nm was measured using UV-VIS Spectrophotometer (Tecan) after incubating with MTT reagent (Promega) for one hour. Cell viabilities were calculated via normalizing to the control group (cells exposed to complete media, 100% viability).

Assay [2] deals with SKOV-3 cells. Briefly: In vitro cytotoxicity (MTT) on SKOV-3. The following applies: read-out: IC50 (half maximal inhibitory concentration). The format is cell-based. As to the method: as §1
Assay [3] concerns MDA-MB-231 cells. The experiment in a line: In vitro cytotoxicity (MTT) on MDA-MB-231. It counts as cell-based. Particulars: Homo sapiens; MDA-MB-231, 48 hour exposure. As to the method:
as §1

Assay [4] relates to subcutaneous A549 tumor implanted in nude mice. The experiment in a line: In vivo therapeutic efficiency (tumor delay, survival, weight, H&E histology). Particulars: 2-week post treatment, single IV dose, cisplatin 3 mg/kg. On the procedure: Nude mice (NU/J) aged 5-6 weeks were purchased from Jacksons Laboratory. Briefly, 2×10^6 A549 cells in 200 μL of Matrigel (Corning, NY) were injected subcutaneously in athymic nude mice. Tumor volumes were checked at regular intervals of 3 days and treatment started when the volume reached ˜300 mm3. Tumor volumes were measured using a standard Vernier Calipers. All procedures involving experimental animals were performed in accordance with the protocols approved by the University of Texas at Arlington Institutional Animal Care and Use Committee.
Xenograft tumors as described above were used to evaluate the therapeutic efficiency of CAR-T-MNPs. After the tumor reached ˜300 mm3, the mice were randomly distributed into 4 groups (n=3) for different treatment groups. Prior to treatment, all mice were ear-tagged, the initial tumor volumes were measured by a caliper, and the body weights were recorded. The treatment groups received a single tail-vein IV administration of either of 200 μL of saline (control), free drug, Jurkat-T-MNPs or CAR-T-MNPs. Tumor volume was measured every 2-3 days via a caliper. Tumor volumes were calculated by measuring the tumor perpendicular diameters with a caliper and calculated using the formula V=½×a×b2, where a and b are the longest diameter and its longest perpendicular diameter, respectively. […]

`CN(C)C/C=C/C(=O)Nc1cc2c(Nc3ccc(F)c(Cl)c3)ncnc2cc1O[C@H]1CCOC1` [afatinib, Afatinib]: the IC50 in assay [1] is around 4.3 µM; in assay [2] (Homo sapiens, SK-OV-3, afatinib: 48 hour exposure) it was around 1.4 µM; in assay [3], around 3.7 µM.

As to `N.N.[Cl][Pt][Cl]` [cisplatin, Cisplatin], in assay [4], the tumor volume result is recorded as “increasing trend”. In addition, in assay [2] (afatinib: 48 hour exposure), the IC50 worked out at 4 µM.
